Results reported in patent US6605644B2, “Analgesic regimen” (Ortho-McNeil Pharmaceutical, Inc., priority 1999, dated 2003).
Where a name gives a salt, the structure may show the parent alone.

Columns and labels:
[1] = cited from earlier work
[2] = cited from earlier work; for peak plasma concentration: mean±standard deviation
[3] = Example 2: open-label run-in and double-blind study of 10-, 16- or 13-day titration in subjects with chronic pain
[4] = Example 1: randomized double-blind study of 1-, 4- or 10-day titration to 200 mg/day in patients with chronic joint pain; format: in vivo; settings: 10-day titration group (50 mg increments every 3 days to 200 mg/day) compared with 1-day and 4-day titration groups, 14 days
Method: A total of 465 patients with chronic joint pain were enrolled in the study and randomized into one of four treatment groups for 14 days. Patients continued on their prestudy dose of NSAIDs while concurrently receiving tramadol or placebo. Tramadol groups were titrated at three different rates to achieve the study target dose of 200 mg/day. […] Discontinuation due to any adverse event was similarly analyzed. If the trend was statistically significant, pairwise comparisons were performed to determine the statistical significance between titration rates.
The study protocol was approved by an Institutional Review Board at each study site and informed consent regarding the risks and benefits of participation was obtained for all patients.
Patients with chronic joint pain who had been receiving a maintenance dose (±25%) of NSAID for at least 30 days, and who required additional pain relief, were randomized into three titration groups and a placebo group using a 2:2:2:1 randomization schedule. […]

[5] = molecular target: μ opioid receptors (Homo sapiens, UniProt P35372); settings: cited from earlier work
Chain of μ opioid receptors (P35372 whole entry): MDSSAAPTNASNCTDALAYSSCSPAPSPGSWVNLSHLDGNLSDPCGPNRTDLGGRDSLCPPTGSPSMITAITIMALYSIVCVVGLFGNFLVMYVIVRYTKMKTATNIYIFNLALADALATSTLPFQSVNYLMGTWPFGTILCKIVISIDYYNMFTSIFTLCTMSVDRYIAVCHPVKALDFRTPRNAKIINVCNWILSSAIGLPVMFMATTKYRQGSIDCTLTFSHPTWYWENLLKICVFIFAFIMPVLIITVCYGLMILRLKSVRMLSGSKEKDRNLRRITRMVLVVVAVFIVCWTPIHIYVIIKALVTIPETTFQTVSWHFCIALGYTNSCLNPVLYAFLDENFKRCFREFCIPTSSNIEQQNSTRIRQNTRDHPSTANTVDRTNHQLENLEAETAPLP

[6] = single 100 mg oral dose, healthy subjects
[7] = double-blind phase, 10-day titration group
[8] = double-blind phase, 13-day titration group
[9] = double-blind phase, 16-day titration group

| SMILES | bound to plasma proteins [1] | absorption after oral administration ([2]; oral administration) | peak plasma concentration [2, 6] | time of peak plasma concentration after administration [2, 6] | median time to discontinuation due to any adverse event [3, 7] | median time to discontinuation due to nausea and/or vomiting [3, 7] | mean reduction from baseline PVA scores ([3]; double-blind phase, 10-day titration group (200 mg/day)) | median time to discontinuation due to any adverse event [3, 8] | median time to discontinuation due to nausea and/or vomiting [3, 8] | mean reduction from baseline PVA scores ([3]; double-blind phase, 13-day titration group (150 mg/day)) | median time to discontinuation due to any adverse event [3, 9] | median time to discontinuation due to nausea and/or vomiting [3, 9] | mean reduction from baseline PVA scores ([3]; double-blind phase, 16-day titration group (200 mg/day)) | mean reduction from baseline PVA scores ([3]; open-label/run-in phase, titrated to 200 mg/day over four days) | advantage in cumulative proportion of subjects who discontinued due to nausea and/or vomiting ([3]; titration to 200 mg/day over 10 days versus over 16 days) | discontinuations due to dizziness and/or vertigo, nausea and/or vomiting, and any other adverse event [4] | binding affinity to μ receptors [5] | terminal plasma elimination half-life [2, 6] |
| --- | --- | --- | --- | --- | --- | --- | --- | --- | --- | --- | --- | --- | --- | --- | --- | --- | --- | --- |
| COc1cccc(C2(O)CCCCC2CN(C)C)c1 (centres unmarked) [tramadol hydrochloride, 2-[(dimethylamino)methyl]-1-(3-methoxyphenyl)cyclohexanol] | 20.2% | rapidly and almost completely absorbed | 308 ± 78 ng/mL | two | 9.0 days | 9.0 days | 1.4 cm | 6.5 days | 5.5 days | 1.6 cm | 6.0 days | 4.0 days | 1.5 cm | 2.1 cm | 20 percentage | fewest discontinuations | low-affinity binding |  |
| CN(C)C[C@H]1CCCC[C@]1(O)c1cccc(O)c1 [mono-O-desmethyl tramadol, mono-O-desmethyltramadol] |  |  | 55 ± 20 ng/mL | approximately three |  |  |  |  |  |  |  |  |  |  |  |  |  | 7.4 ± 1.4 h |
